# Test results taken from patent JPH0776588A, “p−ボロノフェニルアラニン誘導体、その製造方法及び該誘導体の中間体化合物” (Nippon Aluminum Alkyls Ltd, priority 1993, dated 1995).
# Tests used:
# [1] = tested on: B-16 human melanoma cells (B16) [B−16ヒト黒色癌細胞(B16)]; experiment: Cytotoxicity in cultured  (B16); format: cell-based; conditions: 50% or more not killed even after 3 days at 1.77×10^-2 M
# [2] = Cytotoxicity in cultured  (B16); format: cell-based, human; conditions: human, B16 cells
# [3] = tested on: TIG-1-20 human infant germ cells (T20) [TIG−1−20ヒト乳児胚芽細胞(T20)]; experiment: Permeability (浸透性) into T20 cells, residual intracellular boron by ICP-MS; format: cell-based; conditions: boron compound 0.4 mmol, 37°C, 24 h
# B16 cells [B16細胞] = experiment: Permeability (浸透性) into B16 cells, residual intracellular boron by ICP-MS; format: cell-based, human; conditions: 24 h
# 水溶性値 (water solubility) = format: physicochemical; conditions: for solubility: water, M (mol dm-3)
# [4] = permeability B16 versus T20, 37°C
SMILES,IC50 (in words) [1],"cytotoxicity at 72 h, 17700 µM ([2]; compound at 1.77×10^-2 M, even after 3 days, read-out: cells killed) [%]","permeability into T20 cells (in words, versus BPA) [3]","permeability into B16 cells (in words, versus BPA) (B16 cells [B16細胞]; boron compound 0.4 mmol, 37°C)",selectivity for B16 over T20 (B16 cells [B16細胞]; [4]) [fold],water solubility value relative to BPA (水溶性値 (water solubility); ratio to BPA) [fold],solubility (水溶性値 (water solubility)) [mM],IC50 at 72 h ([2]; similar culture conditions (compound (1): after 3 days)) [mM],selectivity for B16 over T20 (in words) (B16 cells [B16細胞]; [4])
NC(Cc1ccc(B(O)O)cc1)C(=O)NC(CO)CO (stereo not shown) [化合物(1)],高い,< 50,BPAよりはるかに低かった,BPAよりわずかに高い浸透性,≥ 5,~100,660,,
"NC(Cc1ccc(B(O)O)cc1)C(=O)O (racemic) [BPA, p−ボロノフェニルアラニン, reference compound]",,,,,,,7.66,8.55,殆ど選択性がない
